Earlier results on one compound are cited in patent publication US5179102A, “Naphthyridinyl/naphthyridinylalkyl-n-terminal anino hydroxy β-amino acid derivatives” (G. D. Searle & Co., priority 1991, dated 1993).

Square brackets hold non-standard residues; d marks the D form. Peptide text beside a SMILES is read from it. * marks the point of attachment. Sta = CC(C)C[C@H](N)[C@@H](O)CC(=O)O; Isovaleryl = CC(C)CC(=O)*

In this data set the test system is hog renin. Conditions: after the injection of hog renin into nephrectomized rats.

As for `CC(C)CC(=O)N[C@H](C(=O)N[C@H](C(=O)N[C@@H](CC(C)C)[C@@H](O)CC(=O)N[C@@H](C)C(=O)N[C@@H](CC(C)C)[C@@H](O)CC(=O)O)C(C)C)C(C)C` [pepstatin] (Isovaleryl-VV[Sta]A[Sta]-OH), the “reduce blood pressure in vivo” value was “found to reduce blood pressure in vivo”.
